Results reported in PubChem BioAssay AID1645865 (Buhrlage Lab, Dana-Farber Cancer Institute and Novartis …, 2021).
Activity calls are given as the source filed them.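 Rule for the calls: active = maximal inhibition of the USP30 enzyme reaching 30% or more across the dose series; inactive = the rest.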

What follows are compounds tested against Ubiquitin carboxyl-terminal hydrolase 30 (Homo sapiens) (UniProt Q70CQ3) (assay: inhibitors of ubiquitin-specific protease 30 deubiquitylating enzyme, concentration dependence, in vitro biochemical, validation of primary hits (AID 1645865)). Conditions: purified USP30, Ub-rhodamine cleavage, fluorescence, 2 h.
Sequence of Ubiquitin carboxyl-terminal hydrolase 30 (Homo sapiens) (Q70CQ3 whole entry, looked up): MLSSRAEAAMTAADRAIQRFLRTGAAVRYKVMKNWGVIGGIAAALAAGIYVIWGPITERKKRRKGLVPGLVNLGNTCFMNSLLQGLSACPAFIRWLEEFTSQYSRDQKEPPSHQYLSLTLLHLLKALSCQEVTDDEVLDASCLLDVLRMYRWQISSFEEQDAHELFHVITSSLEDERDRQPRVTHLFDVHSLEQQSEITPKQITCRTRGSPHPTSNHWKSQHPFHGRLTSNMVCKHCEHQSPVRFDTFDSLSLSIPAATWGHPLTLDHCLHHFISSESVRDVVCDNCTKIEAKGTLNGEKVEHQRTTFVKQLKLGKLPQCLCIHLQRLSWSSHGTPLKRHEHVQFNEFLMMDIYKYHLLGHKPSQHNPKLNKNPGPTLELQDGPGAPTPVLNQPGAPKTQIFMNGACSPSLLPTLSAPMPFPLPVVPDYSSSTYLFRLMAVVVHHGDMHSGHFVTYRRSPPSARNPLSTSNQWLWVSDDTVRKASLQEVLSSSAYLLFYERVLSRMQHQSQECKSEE
`CCCc1nc2c(sc3nc4c(cc32)COC(C)(C)C4)c(=O)n1CC(=O)Nc1ccccc1C` was tested, and the IC50 was 39.7 µM. With `O=C(COC(=O)c1cc(Cl)c2c(c1)OCO2)Nc1ccc2[nH]c(=O)[nH]c2c1` the IC50 was > 50 µM (inactive). `COc1ccc(-c2nc(SCC(=O)Nc3ccc(C(C)=O)cc3)n[nH]2)cc1` showed an IC50 of 11.1 µM. In the case of `C=C1CCC2[C@](C)(CCC[C@]2(C)C(=O)OC)[C@H]1CCc1ccoc1CNC(C)C` (stereo not given in full), the IC50 is reported as > 50 µM (inactive). Compound `O=C(Cn1cc(C(=O)C(F)(F)F)c2ccccc21)N1CCc2ccccc21` has an IC50 of 2.4 µM. `CC1=CC(=O)C(C2=C(O)C(=O)C(C)=CC2=O)=C(O)C1=O` showed an IC50 of 36.2 µM. In the case of `c1ccc(-n2nnc(-c3noc(-c4ccccn4)n3)c2-c2ccncc2)cc1`, the IC50 is reported as 25.4 µM. `O=C(Cc1ccc(Cl)c(Cl)c1)OCC(=O)c1c[nH]c2ccccc12` was tested, and the IC50 was > 50 µM (inactive). In the case of `COC1C(O)=C2C(=O)O/C(C)=C/C=C/C=C/C=C/CC(c3ccccc3)NC(=O)/C=C/C=C/C=C\C=C\C2(C)C1O` (stereo not given), the IC50 is reported as > 50 µM (inactive). For `CN(C)c1cccc(C(=O)Nc2cc(-c3cccnc3)no2)c1`, the IC50 was 16.6 µM. `COc1ccc(/C=C/C(=O)Nc2cccc(S(=O)(=O)Nc3ccccc3Cl)c2)c(OC)c1` showed an IC50 of 25.6 µM. With `COc1cc(Cl)c(C)cc1NC(=O)Cn1c(=O)n(CC(=O)NCc2ccco2)c(=O)c2ccccc21` the IC50 was 1.34 µM. `COc1ccc(N(CC(=O)NC2CCCCC2)C(=O)c2ccc(-c3ccccc3)[nH]2)cc1OC` gave an IC50 of 2.83 µM. Work on `COc1ccc(NS(=O)(=O)c2cc(NC(=O)CCc3nc4ccccc4s3)ccc2C)cc1` yielded an IC50 of 26.2 µM. In the case of `O=C(c1ccc(COc2cccc3ccccc23)o1)N1CCC(Cc2ccccc2)CC1`, the IC50 is reported as > 50 µM (inactive). `COc1ccc(C(=O)Nc2cc(F)c3nc(N4CCOCC4)ccc3c2)c(OC)c1` was tested, and the IC50 was > 50 µM (inactive). In the case of `C[C@H](NC(=O)Cc1ccccc1F)c1nc2cc(-c3ccccc3F)ncn2n1`, the IC50 is reported as > 50 µM (inactive). Compound `Cc1ccc(CN2CCCn3nc(C(=O)NCc4ccccc4C)cc3C2=O)cc1` has an IC50 of 31.5 µM. `Cc1cc(O)cc2cc3c(c(O)c12)C(=O)CCC3O` (stereo not given) was tested, and the IC50 was > 50 µM (inactive). Work on `O=C(Cc1nnc2c(-c3nc(C4CC4)no3)cccn12)Nc1ccccc1` yielded an IC50 of 26.8 µM. `CCCc1nc2sc3c(NC4CCCCC4)ncnc3c2c2c1CCC2` was tested, and the IC50 was > 50 µM (inactive). With `CCCc1nc2sc3c(NCCN4CCOCC4)ncnc3c2c2c1CCC2` the IC50 was > 50 µM (inactive). Work on `O=C(Nc1ccc(F)cc1)Nc1ccccc1OCc1cc(=O)n2ccccc2n1` yielded an IC50 of 3.88 µM. For `O=C(Cn1cnc2c(cnn2-c2ccc(Cl)cc2)c1=O)NCc1ccccc1Cl`, the IC50 was 2.33 µM. In the case of `CN[C@H]1CC2(CCN(C(=O)CCCn3cccn3)CC2)OC[C@]1(C)O`, the IC50 is reported as > 50 µM (inactive). With `COc1cc(NC(=O)Cc2ccccc2)ccc1NC(=O)c1cc2ccccc2o1` the IC50 was 2.32 µM. For `COc1ccc(-c2cc(-c3ccc(O)cc3)nc(N)c2C#N)cc1OC`, the IC50 was > 50 µM (inactive). With `O=C(/C=C/c1ccc(F)cc1)N1CCC(Cc2ccccc2)CC1` the IC50 was 41.9 µM. `COc1ccccc1-c1ccc(SCC(=O)Nc2ccc3c(c2)OCCO3)nn1` was tested, and the IC50 was > 50 µM (inactive). `COc1ccc(CCNC(=O)[C@H](CCSC)NC(=O)N2CCn3c2nc2ccccc23)cc1OC` was tested, and the IC50 was 44 µM. `CCCCCC(O)c1c(O)cc2c(c1O)C(=O)c1c(O)cc(O)cc1C2=O` (stereo not given) was tested, and the IC50 was > 50 µM (inactive). `COC(=O)c1ccc2c(=O)n(CCCCCC(=O)NCCc3ccc(S(N)(=O)=O)cc3)c(=O)[nH]c2c1` gave an IC50 of 6.13 µM. For `CCCN1CCN(C(=O)c2cc(NC(=O)C3CCC3)cc3nc(C)ccc23)CC1`, the IC50 was > 50 µM (inactive). In the case of `COc1cccc2cccc(O)c12`, the IC50 is reported as > 50 µM (inactive). For `Nc1nc(-c2ccc[nH]2)cs1`, the IC50 was > 50 µM (inactive). With `Cc1ccccc1-c1nc(CN(C)S(=O)(=O)c2ccccc2)c(C)o1` the IC50 was 35.8 µM. `COc1ccc(C(=O)NCC(c2ccc3c(c2)CCCN3C)N2CCCC2)cc1` (stereo not given) was tested, and the IC50 was > 50 µM (inactive). `N#Cc1ccccc1OCc1csc(-c2ccccc2)n1` was tested, and the IC50 was > 50 µM (inactive). `O=C(Nc1cccc(OC(=O)c2ccc(Cl)cc2)c1)c1ccc(Cl)cc1` gave an IC50 of 16 µM. For `COC(=O)C1C(c2ccc(Cl)cc2Cl)C2(C(=O)c3ccccc3C2=O)C2C=Cc3ccccc3N12` (stereo not given), the IC50 was > 50 µM (inactive). `O=C(Nc1cccc(Cl)c1)c1ncn2c1CNS(=O)(=O)c1ccccc1-2` gave an IC50 of 12.3 µM. With `O=C(CN1C(=O)NC2(CCCCC2)C1=O)Nc1ccc([N+](=O)[O-])cc1` the IC50 was 33.5 µM. In the case of `COc1ccc(C(=O)C2CC(=O)Nc3c2c(C)nn3-c2ccc(Br)cc2)cc1` (stereo not given), the IC50 is reported as 3.36 µM. In the case of `COc1ccc(NC(=O)C2CC(=O)Nc3c(-c4ccc(Cl)cc4)cnn32)c(OC)c1` (stereo not given), the IC50 is reported as 8.18 µM. `CCC1=C(c2ccc(C)cc2)S(=O)(=O)NC1=NCC(=O)NC(C)c1ccccc1` (stereo not given) gave an IC50 of 21.1 µM. `Cn1nc(-c2ccccc2)c(COC(=O)c2ccc([N+](=O)[O-])cc2)c1Cl` gave an IC50 of 23.4 µM. In the case of `Cc1nc(-c2ccc3c(c2)nnn3CCN2CCOCC2)no1`, the IC50 is reported as > 50 µM (inactive). `CCOC(=O)c1sc2c(c1C)c(=O)n(Cc1ccccc1)c(=O)n2CC(N)=O` was tested, and the IC50 was 45.5 µM. `COc1ccccc1OCCNC(=O)c1cc(C2CC2)nc2c1cnn2C(C)C` was tested, and the IC50 was > 50 µM (inactive). For `Cc1nn(-c2nc3ccccc3[nH]2)c2c1C(c1cccs1)CC(=O)N2` (stereo not given), the IC50 was > 50 µM (inactive). `O=C(COc1ccc2ccccc2c1)Nc1cccc2ccccc12` gave an IC50 of 21 µM. With `Cn1cc2cccc(NC(=O)c3ccc(F)cc3)c2n1` the IC50 was > 50 µM (inactive). `Fc1cccc(Cn2cc(-c3noc(-c4ccncc4)n3)nn2)c1` showed an IC50 of 22.8 µM. In the case of `Cc1ccc(-n2nnc(C(=O)NC3CCCCC3)c2N)cc1`, the IC50 is reported as 21.4 µM. With `c1ccc(-c2ccc(NCc3ccc4c(c3)OCO4)nn2)cc1` the IC50 was 35.1 µM. For `COc1ccc(CNC(=O)C(C)n2nc(-c3ccco3)c(-c3cc(C)no3)cc2=O)cc1` (stereo not given), the IC50 was > 50 µM (inactive). With `Cc1ccc(NC(=O)c2cc(-c3cccnc3)n(-c3ccccc3)n2)nc1` the IC50 was 32.3 µM. Compound `CN(C)C(=O)CSc1nnc(-c2cccc(Cl)c2)n1-c1ccc(Cl)c(C(F)(F)F)c1` has an IC50 of 2.08 µM. `Cc1cc(C)c2cc(CN(CCc3ccccc3)C(=O)Nc3ccccc3)c(=O)[nH]c2c1` was tested, and the IC50 was > 50 µM (inactive). `O=C(O)COc1ccccc1/C=C1\CCc2c1nc1ccccc1c2C(=O)O` was tested, and the IC50 was > 50 µM (inactive). For `COc1cccc(NC(=O)c2ccc(F)cc2Cl)c1`, the IC50 was > 50 µM (inactive). `Cc1nc2cc(NC(=O)C3CN(C(=O)c4cnccn4)C3)ccc2s1` was tested, and the IC50 was > 50 µM (inactive). With `COc1ccccc1CNC(=O)C1CCCN(c2nc3ccsc3c(=O)s2)C1` (stereo not given) the IC50 was 3.45 µM. `Cc1ccc2c(c1)N(C)C(=O)c1cc(NC(=O)c3ccc(F)cc3)ccc1O2` showed an IC50 of 2.71 µM. In the case of `O=C1CN(C(=O)COC(=O)CCCN2C(=O)c3cccc4cccc(c34)C2=O)c2ccccc2N1`, the IC50 is reported as > 50 µM (inactive). Compound `COc1cccc(S(=O)(=O)N2CCn3nc(C(C)(C)C)cc3C2)c1` has an IC50 of 24.6 µM. For `COc1ccc(S(=O)(=O)N2CCc3ccccc32)cc1C(=O)Nc1ccc2[nH]c(=O)[nH]c2c1`, the IC50 was 2.36 µM. In the case of `O=C(COc1ccc(F)cc1)Nc1cnc(-c2ccc(Cl)cc2)nc1`, the IC50 is reported as 38 µM. `CN(C)S(=O)(=O)c1ccc(C(=O)Nc2c(C#N)oc3ccccc23)cc1` was tested, and the IC50 was > 50 µM (inactive). For `CCOc1cc(N2CCOCC2)c(OCC)cc1NC(=O)c1cc(-c2ccncc2)nc2ccccc12`, the IC50 was 3.68 µM. In the case of `COc1ccc(Cl)cc1NC(=O)c1cc(-c2ccccn2)n[nH]1`, the IC50 is reported as 0.164 µM. `O=C(COc1ccc(Cl)cc1Cl)Nc1ccc2[nH]c(=O)[nH]c2c1` showed an IC50 of 4.06 µM. For `CCOC(=O)c1sc2nc(CC(=O)OC)nc(NCc3ccco3)c2c1C`, the IC50 was > 50 µM (inactive). Work on `CN(c1ccccc1)c1nc(=O)n(CC(=O)Nc2ccc3c(c2)OCCO3)c2ccccc12` yielded an IC50 of 35.9 µM. Work on `Cc1ccccc1C(=O)c1ccc(C(=O)NC2CCCCCC2)[nH]1` yielded an IC50 of 2.41 µM. In the case of `CCN(C(=O)c1cc2c(s1)-c1ccccc1OC2)c1ccccc1F`, the IC50 is reported as > 50 µM (inactive). `Cn1c(=O)/c(=C/c2ccccc2)[nH]c(=O)/c1=C/c1ccccc1` showed an IC50 of 14.6 µM. `CSc1ncccc1C(=O)NC1(O)C(=O)c2ccccc2C1=O` showed an IC50 of 29.5 µM. For `Cc1ccc(NC(=O)c2ccc3nn(CC(=O)Nc4ccc(F)cc4F)c(=O)n3c2)cc1`, the IC50 was 2.43 µM. For `CCN(c1ccc(NC(=O)CSc2nnc(-c3ccccc3)n2-c2ccc(OC)c(OC)c2)cc1)C(C)C`, the IC50 was 2.07 µM. For `Cn1cc(-c2noc(Cc3cccc(C(F)(F)F)c3)n2)ccc1=O`, the IC50 was > 50 µM (inactive). `Cc1cc(C)cc(NC(=O)CSc2ccc(-c3ccncc3)nn2)c1` showed an IC50 of 34.6 µM. `Cc1ccccc1-c1nnc(-c2ccc(C(=O)NCc3ccccc3F)cc2)o1` was tested, and the IC50 was 3.32 µM. With `O=C(CN1CCCCC1)Nc1nnc(-c2ccc([N+](=O)[O-])cc2)s1` the IC50 was 22.5 µM. For `NS(=O)(=O)c1cc(C(=O)OCC(=O)NC2CCCc3ccccc32)ccc1Cl` (stereo not given), the IC50 was > 50 µM (inactive). `COc1ccc(-c2cc(C(=O)N3CCN(c4ccc([N+](=O)[O-])cc4)CC3)[nH]n2)cc1` was tested, and the IC50 was > 50 µM (inactive). With `COc1cc2c(cc1OC)-c1cc(NCc3cc(OC)c(OC)c(OC)c3)nc(=O)n1CC2` the IC50 was > 50 µM (inactive). For `CCCCNc1nc2c(-c3ccccc3)nnn2c2ccccc12`, the IC50 was 1.73 µM. `COC(=O)c1cc2c(ccn2C)n1CC(=O)NC1CCCC1` was tested, and the IC50 was > 50 µM (inactive). In the case of `Cc1cc(C(=O)Nc2cc(C)n(Cc3ccc(Cl)cc3)n2)no1`, the IC50 is reported as > 50 µM (inactive). With `CCOc1ccc(-c2cc3nc(C4CCN(C(=O)OC(C)(C)C)CC4)c(C(=O)Nc4cc(F)ccc4F)cn3n2)cc1` the IC50 was > 50 µM (inactive). In the case of `COc1ccc(CNC(=O)Nc2cccc3ccccc23)cc1`, the IC50 is reported as 3.81 µM. For `Oc1ccc(-c2nc3ccc(Cl)cn3c2NC2CCCCC2)cc1`, the IC50 was 14.1 µM. In the case of `COc1cccc(-n2c(CNCc3cccnc3)nc3ccc([N+](=O)[O-])cc3c2=O)c1`, the IC50 is reported as 25.2 µM. With `CC(=O)Nc1ccc(S(=O)(=O)NCc2ccc(C(=O)NCCc3ccc(Cl)cc3)cc2)cc1` the IC50 was 1.71 µM. For `N#Cc1ccc(NC(=O)Nc2cccn(Cc3ccccc3Br)c2=O)cc1`, the IC50 was > 50 µM (inactive). `CC(C)CC(NC(=O)c1ccc(Cl)cc1Cl)c1nc2ccccc2[nH]1` (stereo not given) was tested, and the IC50 was > 50 µM (inactive). For `NS(=O)(=O)c1cccc(NC(=O)CN2CCCc3ccccc32)c1`, the IC50 was > 50 µM (inactive). For `Cc1cc(C)cc(-n2cnc3cc(C(=O)NCCC4=CCCCC4)ccc32)c1`, the IC50 was > 50 µM (inactive). For `COc1ccc(Cl)cc1-n1nnc(C(=O)N2CCc3ccccc3C2)c1C`, the IC50 was > 50 µM (inactive).
